Measurements from patent US10434079B2, “Compositions and methods for the treatment of fatty acid metabolism disorders” (The Children's Hospital of Philadelphia, priority 2013, dated 2019).
Entries after “also recorded” stand apart in the source; their conditions may differ.

What was measured:
[1] = target: T1, C238A VLCAD (Mus musculus, UniProt P50544, C238A); test: Hepa 1 to 6 cells expressing FLAG-tagged C238A VLCAD exposed to GSNO; assay type: cell-based; settings: same GSNO treatment
T1 construct: 3xFLAG (C); host or cells: Hepa 1 to 6 cells
T1 sequence (P50544 42-656 C238A): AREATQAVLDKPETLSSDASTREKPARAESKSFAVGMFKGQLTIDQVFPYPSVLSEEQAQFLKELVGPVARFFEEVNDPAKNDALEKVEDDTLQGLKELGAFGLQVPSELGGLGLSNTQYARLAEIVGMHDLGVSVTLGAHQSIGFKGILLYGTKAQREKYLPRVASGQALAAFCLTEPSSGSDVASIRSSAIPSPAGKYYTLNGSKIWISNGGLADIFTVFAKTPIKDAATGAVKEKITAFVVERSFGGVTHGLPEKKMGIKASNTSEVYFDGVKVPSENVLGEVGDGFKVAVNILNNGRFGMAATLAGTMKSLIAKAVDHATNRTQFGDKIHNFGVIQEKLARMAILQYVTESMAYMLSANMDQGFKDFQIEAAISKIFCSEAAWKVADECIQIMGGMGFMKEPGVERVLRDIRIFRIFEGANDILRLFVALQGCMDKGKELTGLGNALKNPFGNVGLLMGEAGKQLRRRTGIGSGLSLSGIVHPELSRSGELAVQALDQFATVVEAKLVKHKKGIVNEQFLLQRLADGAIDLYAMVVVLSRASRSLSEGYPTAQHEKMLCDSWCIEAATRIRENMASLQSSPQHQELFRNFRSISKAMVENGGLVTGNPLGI
Experimental: Liver homogenate (final concentration of 0.03 μg/μl) or cell lysate (final concentration of 0.09 μg/μl) in 100 mM potassium phosphate buffer (pH 7.2) containing 0.2% Triton X-100 and 0.1 mM EDTA was mixed with […] ferricenium ion, and the reaction was initiated by the addition of palmitoyl-CoA (the final volume of the assay was 130 μl). […] At least nine concentrations of palmitoyl-CoA, ranging from 0.015 to 2 mM, were used for the experimental determination of the apparent Vmax and KM of VLCAD for each animal. […] A unit of enzyme activity is defined as the amount of enzyme that causes the reduction of […] of ferricenium per minute at room temperature (ε=4.3 mM^−1 cm^−1 at 300 nm) (Izai et al. (1992) J. Biol. Chem., 267:1027-1033). […] The measurement of specific activity of VLCAD in liver homogenates (FIG. 2H) and cell lysates (FIG. 4) was performed in the presence of 0.25 and 0.125 mM palmitoyl-CoA, respectively.
The QuikChange® Lightning Site-Directed Mutagenesis Kit (Agilent Technologies) was used to introduce single amino acid mutations in complementary DNA encoding VLCAD. A cysteine-to-alanine mutant at amino acid position 238 was generated with Ex-Mm01013-M14 (hereinafter referred to as pVLCAD-3×FLAG®), a plasmid encoding mouse VLCAD fused to three FLAG® tags in the C-terminal region of the protein (GeneCopoeia), as a template. […]

[2] = tested on: ob/ob mice; test: Liver histology and liver/serum triglyceride concentrations in ob/ob mice; assay type: in vivo, mouse; settings: GSNO-injected vs PBS-injected ob/ob mice
Excerpt: Formalin-fixed liver sections were stained with Trichrome Stain Kit (Sigma) according to the manufacturer's instructions. Triglycerides were extracted from liver according to the Folch method (Folch et al. (1957) J. Biol. Chem., 226:497-509). Serum and liver triglyceride concentrations were quantified with a triglyceride quantification kit following the manufacturer's instructions (Abcam). Leptin-deficient mice develop liver steatosis spontaneously under normal chow diet starting at 4 to 5 weeks of life that is characterized by a diminished rate of palmitate oxidation and accumulation of fat droplets in the form of triglycerides within the hepatocytes (Brix et al. (2002) Mol. Genet. Metab., 75:219-226; de Oliveira et al. (2008) J. Am. Coll. Nutr., 27:299-305). […] This significant reduction in the rate of palmitoyl-CoA oxidation indicated a deficiency in mitochondrial β-oxidation of fatty acids. […] GSNO was used to deliver nitric oxide equivalents because of the extensive use of this pharmacological agent in cellular models to modify proteins by S-nitrosylation […] cellular permeability (Hara et al. (2005) Nat. Cell Biol., 7:665-674; Chung et al. (2004) Science 304:1328-1331). […] Moreover, the restoration of palmitoyl-CoA oxidation in GSNO-injected ob/ob mice was associated with a significant reduction of the concentration of liver triglycerides. […]

basal activity of C238A VLCAD mutant in response to GSNO [1]: did not change
SMILES: N[C@@H](CCC(=O)N[C@@H](CSN=O)C(=O)NCC(=O)O)C(=O)O [GSNO, S-nitrosoglutathione]
fat deposits in liver slices (trichrome histology) [2]: diminished fatty acid deposition; also recorded: fewer fat deposits
